Results published in PubChem BioAssay (NCI).
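Briefly, cells in 96-well plates were exposed to five compound concentrations for 48 h, and endpoints were estimated by linear interpolation. The concentration for 50% growth inhibition is given as GI50. TGI: total growth inhibition.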

How the values were obtained:
Test in all cases: inhibition of tumour cell growth, NCI panel, 48 h
[1] = test system: SF-539 CNS
[2] = test system: KM12 colon
[3] = test system: SK-MEL-5 melanoma
[4] = test system: OVCAR-5 ovarian
[5] = test system: DU-145 prostate
[6] = test system: SF-268 CNS
[7] = test system: OVCAR-8 ovarian
[8] = test system: TK-10 renal
[9] = test system: UACC-62 melanoma
[10] = test system: MALME-3M melanoma

SMILES | GI50 [1] | TGI [1] | GI50 [2] | TGI [2] | GI50 [3] | TGI [3] | GI50 [4] | TGI [4] | GI50 [5] | TGI [5] | GI50 [6] | TGI [6] | GI50 [7] | TGI [7] | GI50 [8] | TGI [8] | GI50 [9] | TGI [9] | GI50 [10] | TGI [10]
Cc1nnc(-c2ccc(C)c(-c3ccc(C(=O)NCc4ccc(Cl)cc4)cc3)c2)o1 | > 22.7 µM | > 25 µM | 11 µM | > 25 µM | 3.97 µM | 9.53 µM | > 25 µM | > 25 µM | 16.2 µM | > 25 µM | 12.9 µM | > 25 µM | > 25 µM | > 25 µM | > 15.7 µM | > 25 µM | 8.21 µM | > 25 µM | 6.15 µM | 24.9 µM
CC1CC(C)C2=NOS3=C2C1=NO3 (stereo not given) | – | > 100 µM | – | > 100 µM | – | > 100 µM | – | > 100 µM | – | > 100 µM | – | > 100 µM | – | > 100 µM | – | > 100 µM | – | > 100 µM | – | > 100 µM
O=C(Nc1ccc2c(c1)OCO2)C(=O)c1c[nH]c2cc(F)ccc12 | 3.23 µM | 36.3 µM | 0.389 µM | 13.7 µM | 0.726 µM | 10.6 µM | 17.9 µM | > 100 µM | 3.52 µM | 44.6 µM | 4.52 µM | 22.1 µM | 3.89 µM | 23.6 µM | 7.04 µM | 25.4 µM | 0.238 µM | 1.58 µM | 3 µM | 8.61 µM
Nc1nc(N)c(N=Nc2ccc(C(=O)O)c(O)c2)c(N)n1 | – | > 100 µM | – | > 100 µM | – | > 100 µM | – | > 100 µM | – | > 100 µM | – | > 100 µM | – | > 100 µM | – | > 100 µM | – | > 100 µM | – | > 100 µM
O=C1C(=O)N(c2cccc(C(F)(F)F)c2)C(=O)C(=O)C1c1nc2ccccc2s1 | – | > 100 µM | – | > 100 µM | – | > 100 µM | – | > 100 µM | – | > 100 µM | – | > 100 µM | – | > 53.8 µM | – | > 100 µM | – | > 100 µM | – | > 100 µM
O=S(=O)(Nc1ccc2ccccc2c1)c1ccc(-c2cnc(C3CC3)o2)cc1 | 1.17 µM | 3.92 µM | 0.624 µM | 14.7 µM | 0.829 µM | 12.7 µM | 3.01 µM | 23.4 µM | 2.96 µM | 20.4 µM | 3.44 µM | 24.5 µM | 2.88 µM | 67.1 µM | 5.81 µM | > 100 µM | 0.914 µM | 14.5 µM | 0.999 µM | 24 µM
CC(CCCC1SCC2NC(=O)NC21)C(=O)O (stereo not given) | – | > 100 µM | – | > 100 µM | – | > 100 µM | – | > 100 µM | – | > 100 µM | – | > 100 µM | – | > 100 µM | – | > 100 µM | – | > 100 µM | – | > 100 µM
CC(C)CCC(=O)[C@@H](C)[C@H]1[C@@H](OC2OCC(O)C(O)C2NS(C)(=O)=O)C[C@H]2[C@@H]3CC=C4C[C@@H](O)CC[C@]4(C)[C@H]3CC[C@]12C (stereo not given in full) | 0.202 µM | 1.11 µM | 2.77 µM | 11 µM | 1.26 µM | 4.51 µM | 4.89 µM | 16.8 µM | 3.42 µM | 20.4 µM | 1.25 µM | 6.99 µM | 7.63 µM | 37.2 µM | 6.63 µM | 23.5 µM | 0.79 µM | 1.95 µM | 0.91 µM | 4.29 µM
O=C(Cn1c(C(=O)c2ccccc2)nc2ccccc21)c1ccc(F)cc1 | 16 µM | > 100 µM | 2.48 µM | > 100 µM | 4.13 µM | > 82.2 µM | > 100 µM | > 100 µM | > 48.7 µM | > 100 µM | 19.6 µM | > 100 µM | 37.4 µM | > 100 µM | 14.2 µM | > 100 µM | 11.7 µM | > 100 µM | 11.1 µM | > 100 µM
COC(=O)C1=C(C(=O)OC)C2OC1c1cc3ccccc3cc12 | – | 12.1 µM | – | > 58.1 µM | – | 30.8 µM | – | 11.3 µM | – | 21.6 µM | – | 34.9 µM | – | 13.6 µM | – | 11.3 µM | – | 27.9 µM | – | 6 µM
CSc1ccc(C2=NN(C(C)=O)C(c3ccc(F)cc3)C2)cc1 (stereo not given) | 17.5 µM | 35.4 µM | 12.8 µM | 36.5 µM | 12.9 µM | 26.4 µM | 18.9 µM | 43.7 µM | 23.8 µM | 61.7 µM | 14.9 µM | 42.5 µM | 19.4 µM | 42 µM | 19.8 µM | 63.7 µM | 7.97 µM | 21.1 µM | 15.8 µM | 31.3 µM
